{
  "source": "patent US7419950B2",
  "about": "“Methods of inhibiting ectopic calcification” (University of Washington, priority 1998, dated 2008)",
  "key": {"[1]": {"tested_on": "human vascular smooth muscle cells (HSMC)", "assay": "Calcium deposition by human vascular smooth muscle cells in high-phosphate calcification medium", "format": "cell-based", "details": "for calcium deposition into HSMC matrix (in words): high-phosphate calcification medium", "method": "(§1) Calcification was assessed by a modification of the method described by Jono et al., Arterioscler. Thromb. Vasc. Biol. 17:1135-1142 (1997) which is incorporated herein by reference. Briefly, the cultures were decalcified with 0.6 N HCl for 24 hours. The calcium content of the HCl supernatant was determined calorimetrically by the o-cresolphthalein complexone method (Calcium Kit, Sigma). After decalcification, the cultures were washed with phosphate-buffered saline (PBS) and solubilized with 0.1 N NaOH/0.1% sodium dodecyl sulfate(SDS). Total protein content was measured with a Bio-Rad Protein Assay Kit (Bio-Rad). The calcium content of the cell layer was normalized to protein content. Phosphorus and calcium concentrations in the culture medium were measured by the phosphomolybdate complex method (Phosphorus Kit, Sigma) and the o-cresolphthalein complexone method (Calcium Kit, Sigma), respectively. Values were expressed as the mean +/− SEM, n=3.\nHSMC were routinely subcultured in growth medium. At confluence, cells were switched to calcification medium (DMEM containing 15% FBS and 1 mM sodium pyruvate in the presence of 2 mM inorganic phosphate supplemented with 100 U/ml penicillin and 100 μg/ml of streptomycin) for up to 14 days. The medium was replaced with fresh medium every 2 days. For time-course experiments, the first day of culture in calcification medium was defined as day 0. Calcium deposition was quantified and assessed histochemically and cytochemically as described above in Example I.\nOsteopontin proteins and functional fragments were assayed for their ability to inhibit ectopic calcification using the HSMC calcification system described in Example III. The osteopontin proteins include full-length human recombinant osteopontin as well as recombinant N-terminal and C-terminal human osteopontin fragments similar to those that would be formed following thrombin cleavage of the native protein, as described by Smith et al., supra (1996). Two N-terminal fragments were used, 10N and 30N, which refer to two differ splice variants of osteopontin. The 30N splice variant contains an additional 14 amino acids, […] (SEQ ID NO: 7), which correspond to exon 5 (amino acids 59-72). The ION fragment contains amino acids 17-58 and 73-160 of native osteopontin, whereas the 30N fragment contains amino acids 17-169. The 10C fragment contains the C-terminal domain of osteopontin, amino acids 170-317.\nRecombinant osteopontin and its functional fragments were assayed for their ability to inhibit ectopic calcification of human smooth muscle cells (HSMC) either prior to or following phosphorylation by casein kinase II. The amount of phosphate incorporated into osteopontin (OPN) and its fragments achieved by casein kinase II phosphorylation is shown in FIG. 5b."}, "alkaline phosphatase": {"molecular_target": "T1, alkaline phosphatase (Bos taurus, UniProt P09487)", "T1 construct": "cellular proteins were solubilized with 1% Triton X-100 in 0.9% NaCl and centrifuged; endogenous in cells; host or cells: BASMC (bovine aortic smooth muscle cells), detergent lysate supernatant", "T1 sequence (P09487 18-499)": "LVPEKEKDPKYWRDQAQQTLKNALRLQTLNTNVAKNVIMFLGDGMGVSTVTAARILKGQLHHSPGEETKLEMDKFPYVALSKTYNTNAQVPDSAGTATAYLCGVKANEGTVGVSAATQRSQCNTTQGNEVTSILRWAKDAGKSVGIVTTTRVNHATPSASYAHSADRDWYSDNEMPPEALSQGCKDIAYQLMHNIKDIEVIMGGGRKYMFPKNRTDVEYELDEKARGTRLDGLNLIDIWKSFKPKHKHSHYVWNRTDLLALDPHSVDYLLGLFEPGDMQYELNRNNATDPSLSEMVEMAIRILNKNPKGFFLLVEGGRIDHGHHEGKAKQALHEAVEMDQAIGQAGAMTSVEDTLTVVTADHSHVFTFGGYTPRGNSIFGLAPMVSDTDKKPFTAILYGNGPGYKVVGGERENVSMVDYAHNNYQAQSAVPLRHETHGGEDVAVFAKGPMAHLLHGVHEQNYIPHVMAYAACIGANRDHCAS", "assay": "Cellular alkaline phosphatase activity of BASMC cultures", "format": "cell-based, bovine", "details": "cells in calcification medium", "method": "For cellular alkaline phosphatase activity measurements, cells were cultured in calcification medium in the presence of various concentrations of osteopontin. Cells were washed three times with PBS and cellular proteins were solubilized with 1% Triton X-100 in 0.9% NaCl and centrifuged. Supernatants were assayed for alkaline phosphatase activity by the method described by Bessey et al., J. Biol. Chem. 164:321-329 (1946), which is incorporated herein by reference. One unit was defined as the activity producing 1 nmol of p-nitrophenol within 1 minute. Protein concentrations were determined with a Bio-Rad protein assay kit (Bio-Rad). The data were normalized to the protein content of the cell layer."}, "[2]": {"tested_on": "bovine aortic smooth muscle cells (BASMC)", "assay": "Calcium deposition by cultured bovine aortic smooth muscle cells in calcification medium", "format": "cell-based", "details": "for inhibition of calcium deposition (in words): equimolar concentrations as were effective for osteopontin", "method": "In order to examine calcification by cultured BASMC smooth muscle cells, calcification was induced by the method described by Shioi et al., Arterioscler Thromb Vasc Biol., 15:2003-2009 (1995), which is incorporated herein by reference. Briefly, BASMC were cultured in growth medium for 4 days, and then switched to calcification medium (DMEM (high glucose, 4.5 g/L) containing 15% FBS and 10 mM sodium pyruvate in the presence of 10 mM of β-glycerophosphate (unless otherwise stated), 10^-7 M insulin, and 50 μg/ml of ascorbic acid, supplemented with 100 U/ml of penicillin and 100 μg/ml of streptomycin) for 10 days. The medium was replaced with fresh medium twice a week. In the time course experiments, the beginning day of culture in calcification medium was defined as day 0.\nas §1\nTo examine the effect of osteopontin on BASMC-mediated calcification in vitro, soluble osteopontin or vehicle alone (0.1 mM sodium citrate) was added to the calcifying BASMC cultures. […] In contrast, vehicle alone had no effect (FIG. 2a).\nTo exclude the possibility that contaminants in the osteopontin preparation were responsible for the observed inhibitory effect, immunodepletion experiments were performed. Medium containing 10 μg/ml osteopontin was mixed with […] anti-osteopontin (OP-199) or normal goat IgG, prepared by the method described by Liaw et al., supra (1994) and incubated for 1 hr at room temperature. 250 mg protein-A-sepharose was added and incubated for 1 hr at room temperature. The antibody-protein A sepharose complexes were removed by centrifugation, and the remaining supernatant diluted twenty-fold for use in the calcification studies. Unpaired Student's t test was employed to compare groups and a probability value (p) value less than 0.05 was considered significant."}, "BASMC": {"tested_on": "BASMC", "assay": "Phosphorus concentration in BASMC culture medium", "format": "cell-based, bovine", "details": "BASMC calcification medium", "method": "as §1"}},
  "data": [
    {"compound": "O=P(O)(O)O", "note": "[inorganic phosphate]", "values": [
      {"measurement": "calcium deposition", "setting": "[1]; 2 mM inorganic phosphate, day 9, mean +/-SEM", "result": "210.3+/−2.4 μg/mg protein"}
    ]},
    {"compound": "c1ccc([C@H]2CN3CCSC3=N2)cc1", "note": "[levamisole, reference compound]", "values": [
      {"measurement": "alkaline phosphatase activity of BASMC cultures (in words)", "setting": "alkaline phosphatase", "result": "dose-dependently inhibited"},
      {"measurement": "IC50", "setting": "[2]; Bos taurus, BASMC cultures in calcification medium, read-out: half-maximal inhibition of calcium deposition", "result": 50, "unit": "µM"},
      {"measurement": "calcium deposition in BASMC cultures (in words)", "setting": "[2]; levamisole versus vehicle", "result": "dose-dependently inhibited"},
      {"measurement": "phosphorus concentration of the culture medium (in words)", "setting": "BASMC", "result": "reduced"}
    ]},
    {"compound": "O=P(O)(O)OC(CO)CO", "note": "[β-glycerophosphate]", "values": [
      {"measurement": "EC50", "setting": "[2]; BASMC, initial concentration of β-glycerophosphate in medium, read-out: concentration giving half-maximal calcium deposition", "result": "~4000", "unit": "µM"}
    ]},
    {"compound": "OPN: full-length human recombinant osteopontin prepared as a His-tagged protein; tested with or without casein kinase II phosphorylation", "values": [
      {"measurement": "inhibition of ectopic calcification, dose relation (in words)", "setting": "[1]; 0.1 μg/ml to 5.0 μg/ml", "result": "dose-dependent"},
      {"measurement": "time to significantly reduced calcium deposition", "setting": "[1]; after addition to HSMC", "result": "≤ 60", "unit": "min"},
      {"measurement": "inhibition of calcification", "setting": "[1]; by 90 minutes following addition", "result": "approximately 50%"},
      {"measurement": "calcium deposition into HSMC matrix (in words)", "setting": "[1]; non-phosphorylated forms", "result": "do not significantly affect"},
      {"measurement": "HSMC calcification (in words)", "setting": "[1]; phosphorylated by casein kinase II, 15 nM", "result": "able to inhibit HSMC calcification"},
      {"measurement": "HSMC calcification (in words)", "setting": "[1]; phosphorylated protein dephosphorylated with alkaline phosphatase (ALP)", "result": "reverses this inhibitory ability"},
      {"measurement": "calcium deposition into HSMC matrix (in words)", "setting": "[1]; protein phosphorylated by casein kinase II", "result": "reduced to basal levels"}
    ]},
    {"compound": "fibronectin: bovine fibronectin (TELIOS), RGD-containing extracellular matrix molecule [reference compound]", "values": [
      {"measurement": "inhibition of calcium deposition (in words)", "setting": "[2]", "result": "unable to inhibit calcium deposition"}
    ]},
    {"compound": "osteopontin: Rat osteopontin purified from the conditioned medium of rat neonatal smooth muscle cell cultures, >95% pure", "values": [
      {"measurement": "alkaline phosphatase activity of BASMC cultures (in words)", "setting": "alkaline phosphatase", "result": "did not affect"},
      {"measurement": "inhibition of BASMC culture calcification", "setting": "[2]; 0.5 ug/ml added on day 7 after start of mineralization, read at day 10", "result": 50, "unit": "%"},
      {"measurement": "fold inhibition of calcification versus vehicle", "setting": "[2]; 0.5 ug/ml in medium", "result": 18, "unit": "fold"},
      {"measurement": "inhibition of calcification", "setting": "[2]; 0.5 μg/ml, 10 days", "result": "approximately 90%"},
      {"measurement": "calcium deposition in cell layer", "setting": "[2]; 0.5 ug/ml, no immunodepletion", "result": "0.33 ± 0.06", "unit": "µmol/mg"},
      {"measurement": "inhibition of calcification (in words)", "setting": "[2]; 5 μg/ml, 10 days", "result": "almost completely inhibited"},
      {"measurement": "calcification of BASMC (in words)", "setting": "[2]; 0.05, 0.5 and 5 μg/ml, assessed at 10 days", "result": "dose-dependently inhibited"},
      {"measurement": "dependence of inhibitory effect on mineralization on calcium (in words)", "setting": "[2]; medium supplemented with increasing calcium, 10 days", "result": "calcium dependent"},
      {"measurement": "calcium deposition in cell layer", "setting": "[2]; osteopontin solution immunodepleted with anti-osteopontin antibody (OP-199)", "result": "2.60 ± 0.43", "unit": "µmol/mg"},
      {"measurement": "calcium deposition in cell layer", "setting": "[2]; osteopontin solution treated with normal goat IgG", "result": "0.49 ± 0.10", "unit": "µmol/mg"},
      {"measurement": "phosphorus concentration of the culture medium (in words)", "setting": "BASMC", "result": "did not reduce"}
    ]},
    {"compound": "vitronectin [reference compound]", "values": [
      {"measurement": "inhibition of calcium deposition (in words)", "setting": "[2]", "result": "unable to inhibit calcium deposition"}
    ]}
  ]
}
